Like-named read-outs stand apart in the source and are kept apart here.
Columns and labels:
[1] = Pharmacokinetics / plasma GRA1 concentrations in rhesus monkeys; format: in vivo, rhesus monkey
hepatic hGCGR = target: T1, hepatic hGCGR (Homo sapiens, UniProt P47871); experiment: In vivo inhibition of hepatic 125I-glucagon binding (hGCGR occupancy) in hGCGR mouse
T1 construct: a transgenic line of mouse that expresses the hGCGR instead of the murine GCGR; from tissue; host or cells: liver of hGCGR mouse, in vivo
T1 sequence (P47871 26-477): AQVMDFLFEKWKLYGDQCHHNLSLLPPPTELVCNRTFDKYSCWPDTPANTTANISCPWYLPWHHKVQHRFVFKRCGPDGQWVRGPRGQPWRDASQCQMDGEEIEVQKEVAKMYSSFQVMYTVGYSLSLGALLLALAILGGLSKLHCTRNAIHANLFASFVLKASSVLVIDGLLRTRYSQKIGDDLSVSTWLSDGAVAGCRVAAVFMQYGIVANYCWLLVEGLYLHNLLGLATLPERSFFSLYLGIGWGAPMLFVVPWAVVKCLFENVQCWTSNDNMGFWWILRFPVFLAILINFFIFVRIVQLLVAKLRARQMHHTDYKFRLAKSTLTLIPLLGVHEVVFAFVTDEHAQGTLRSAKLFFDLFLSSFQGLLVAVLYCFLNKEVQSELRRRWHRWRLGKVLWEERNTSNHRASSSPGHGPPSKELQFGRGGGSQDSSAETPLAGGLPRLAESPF
Description: Inhibition of ^125I-glucagon binding to hGCGR (a measure of hGCGR occupancy by antagonist) was assayed in hGCGR mouse liver in vivo as previously described. Glycogen content of perfused hGCGR mouse liver was measured as previously described. In brief, livers were perfused ex vivo with Ringers solution containing 6.7 mM [2-^13C]pyruvate while ^13C content (indicative of accumulated [^13C]glycogen) was monitored dynamically by nuclear magnetic resonance imaging.
Figure 2 In vivo inhibition of hepatic ^125I-glucagon binding in the hGCGR mouse following (A) acute and (B) chronic dosing with GRA1. The data are mean (±SEM) percent reductions in liver ^125I-glucagon content measured (A) 1, 3, 5, and 8 h after a single oral dose of 3 mg/kg GRA1, and (B) after treatment for 30 days with control diet or food/drug admixtures that provided 3, 6, 10, or 30 mg/kg·day GRA1.

hGCGR.ob/ob mice = experiment: Antihyperglycemic efficacy in hGCGR.ob/ob mice (acute and chronic); format: in vivo, hGCGR.ob/ob mouse
Source text: The present study made use of a line of hGCGR-expressing mouse (“hGCGR mouse”) generated previously by substituting the hGCGR gene for the mouse GCGR gene. These mice were crossed with C57BL/6J.ob/+ mice (Jackson Laboratories, Bar Harbor, ME) to obtain an hGCGR.ob/+ mouse line. The hGCGR.ob/+ mice were then intercrossed to obtain hGCGR.ob/ob, hGCGR.ob/+, and hGCGR.+/+ mice (with the hGCGR.ob/+ and hGCGR.+/+ mice serving as littermate controls). […] obese (DIO) hGCGR mice were generated by maintaining hGCGR mice on a high-fat diet (HFD) in which 45–60% of calories were in fat (Product S3282, Bio-Serv, Frenchtown, NJ). High-fat-diet-streptozotocin-treated (HFD/STZ) diabetic mice were generated in-house as previously described.
Acute glucose lowering was studied in non-fasted hGCGR.ob/ob mice and HFD/STZ mice administered single doses p.o. of 1, 3 and 10 mg/kg GRA1 in 10 mL/kg 0.5% aqueous methylcellulose. Animals were fasted during the interval between dosing and the final blood glucose measurement. Glucose was measured in blood from tail bleeds using a OneTouch glucometer. In the experiments with hGCGR HFD/STZ mice, treatment groups were matched with respect to body weight and blood glucose levels.
Animals were dosed chronically with GRA1 and the DPP-4 inhibitor des-fluoro-sitagliptin by administering these agents as food admixtures. The admixtures were prepared in-house and by Research Diets (New Brunswick, NJ), with drug concentrations adjusted weekly on the basis of average food consumption and animal weight to provide targeted daily doses. In the GRA1 experiments, the targeted doses were 3, 6, 10, and 30 mg/kg•day. In des-fluoro-sitagliptin experiments, the targeted dose was 200 mg/kg•day, a relatively high amount necessary because this compound has a half-life in rodents of 1–2 h.
Plasma glucagon and active GLP-1 were measured using commercial ELISA kits (Linco Research Immunoassay, St. Charles, MO). […] Plasma insulin was determined by ELISA with a commercial kit (ALPCO Diagnostics, Windham, NH). Plasma concentrations of glycated hemoglobin A1c (HbA1c) were measured using a Micromat II test kit from Bio-Rad Laboratories (Hercules, CA). Total cholesterol, low-density lipoprotein cholesterol (LDL-c) and non-LDL-c, and aspartate aminotransferase were measured using a Roche P Modular Clinical Chemistry analyzer (Indianapolis, IN).
Figure 4 GRA1 lowers blood glucose in the DIO hGCGR and hGCGR.ob/ob mouse. Mean (±SEM) blood glucose concentrations in (A) non-fasted and (B) fasted DIO hGCGR mice treated with approximately 3 and 10 mg/kg·day GRA1 provided as a food admixture. (Additional data from this study are in Table 2). (C) Mean (±SEM) blood glucose concentrations in the hGCGR.ob/ob mouse following single oral doses of 1, 3, or 10 mg/kg GRA1 or vehicle. (D) Mean (±SEM) non-fasted blood glucose concentrations in hGCGR.ob/ob mice treated for 2–8 weeks with control diet or 10 mg/kg·day GRA1 administered as diet admixture. *p<0.05, **p<0.01, and ***p<0.001 in timepoint-matched comparisons with controls; n = 8 in each group.

hGCGR mouse = experiment: Blunting of glucagon-induced blood glucose excursion in hGCGR mouse; format: in vivo; conditions: vehicle 1393±179
Description: In mouse studies of glucagon-induced excursions in blood glucose, animals were dosed orally with vehicle (10 mL/kg 0.5% aqueous methylcellulose) or GRA1 one hour prior to challenge by intraperitoneal injection of 15 µg/kg glucagon (Eli Lilly, Indianapolis, IN) or vehicle, [20]. In the studies in monkey, GRA1 or vehicle was administered to chair-restrained animals via a nasogastric tube 4 h prior to intramuscular injection of 15 µg/kg glucagon. Blood glucose measurements were made using a OneTouch glucometer (Lifescan, Milpitas, CA).
Figure 3 Blunting of glucagon-induced blood glucose excursions by GRA1 treatment in the (A) hGCGR mouse and (B) rhesus monkey. In (A), mice (n = 8) were administered vehicle or 3, 10 or 30 mg/kg GRA1, then challenged 1 h later (time 0) by intraperitoneal injection of 15 µg/kg glucagon or vehicle. Pharmacokinetic analysis determined that these animals had mean plasma GRA1 concentrations of 0.4, 0.9, and 4.7 µM, respectively, at 1 h postdose. In (B), monkeys (n = 4) were administered 1 mg/kg GRA1 4 h prior to intramuscular injection of 15 µg/kg glucagon or vehicle. At 1 h postdose, the mean plasma GRA1 concentration in these animals was 0.2 µM. *p<0.05; **p<0.01; and ***p<0.001 vs. glucagon-treated control animals.

SMILES: COc1ccc2cc(-c3cc(-c4cc(C(F)(F)F)ccc4F)nn3[C@@H](C)c3ccc(C(=O)NCCC(=O)O)cc3)ccc2c1 [GRA1, N-[4-((1S)-1-{3-(2-fluoro-5-trifluoromethylphenyl)-5-[6-methoxynaphth-2-yl]-1H-pyrazol-1-yl}ethyl)benzoyl]-β-alanine]
- concentration at 1 h ([1]; rhesus monkey, plasma, oral, 1 mg/kg, 1 h postdose (glucagon challenge)): 200 nM
- half-life ([1]; rhesus monkey, plasma, single oral dose 2 mg/kg, read-out: Apparent plasma terminal half-life (converted)): 6.3 h
- Fraction of the dose absorbed ([1]; single oral dose 2 mg/kg): 55%
- Route of excretion ([1]; single oral dose 2 mg/kg): nearly all absorbed drug was excreted unchanged via the bile
- receptor occupancy at 3 mg/kg (hepatic hGCGR; 30 days food admixture, 3 mg/kg·day, read-out: Receptor occupancy): 71%
- receptor occupancy at 6 mg/kg (hepatic hGCGR; 30 days food admixture, 6 mg/kg·day): 78%
- receptor occupancy at 10 mg/kg (hepatic hGCGR; 30 days food admixture, 10 mg/kg·day): 83%
- receptor occupancy at 30 mg/kg (hepatic hGCGR; 30 days food admixture, 30 mg/kg·day): 93%
- receptor occupancy at 3 mg/kg (hepatic hGCGR; po, single oral dose 3 mg/kg, 1 h postdose, read-out: Receptor occupancy): 64%
- receptor occupancy at 3 mg/kg (hepatic hGCGR; po, single oral dose 3 mg/kg, 3 h postdose, read-out: Receptor occupancy): 71%
- receptor occupancy at 3 mg/kg (hepatic hGCGR; po, single oral dose 3 mg/kg, 5 h postdose, read-out: Receptor occupancy): 65%
- receptor occupancy at 3 mg/kg (hepatic hGCGR; po, single oral dose 3 mg/kg, 8 h postdose, read-out: Receptor occupancy): 73%
- receptor occupancy at 3 mg/kg (hepatic hGCGR; po, single oral dose 3 mg/kg, for 1–8 h, read-out: Reduction of in vivo occupancy of hepatic hGCGR by 125I-glucagon): 64 to 73%
- Non-fasted blood glucose lower than control diet (hGCGR.ob/ob mice; 10 mg/kg•day, 2, 4 and 8 weeks): 40–50%
- Food intake, body weight, fasting insulin levels vs control diet (hGCGR.ob/ob mice; 10 mg/kg•day, 8 weeks (data not shown)): No differences
- Mean fasted blood glucose (hGCGR.ob/ob mice; 10 mg/kg•day, 8 weeks, control diet 189±36): 90.8 ± 7.8 mg/dL
- Mean plasma glucagon (hGCGR.ob/ob mice; 10 mg/kg•day, 8 weeks, control diet 959±90): 1356 ± 113 pg/mL
- Total GLP-1 (hGCGR.ob/ob mice; 10 mg/kg•day, 8 weeks, controls 15.6±2.0): 26.5 ± 3.0 pM
- Effect on blood glucose, single dose (hGCGR.ob/ob mice; single doses of 3 and 10 mg/kg vs vehicle): lowered blood glucose significantly
- Baseline-subtracted mean AUC0–50 of glucagon-stimulated blood glucose excursion (hGCGR mouse; 3 mg/kg p.o. 1 h before 15 µg/kg glucagion i.p.): 812 ± 122 mg·min/dL
- Baseline-subtracted mean AUC0–50 of glucagon-stimulated blood glucose excursion (hGCGR mouse; 10 mg/kg p.o. 1 h before 15 µg/kg glucagon i.p.): 543 ± 68 mg·min/dL
- Baseline-subtracted mean AUC0–50 of glucagon-stimulated blood glucose excursion (hGCGR mouse; 30 mg/kg p.o. 1 h before 15 µg/kg glucagon i.p.): 476 ± 64 mg·min/dL

From publication PMC3501516, “Anti-Diabetic Efficacy and Impact on Amino Acid Metabolism of GRA1, a Novel Small-Molecule Glucagon Receptor Antagonist” (PLoS ONE, 2012)
